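Values below derive from 48-hour exposures of cells grown in 96-well plates, with endpoints linearly interpolated between the two concentrations bracketing the appropriate inhibition level. TGI: total growth inhibition.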
Legend:
Assay in all cases: DTP human tumour cell line panel, 48 h
OVCAR-8 ovarian = system: OVCAR-8 ovarian
SN12C renal = system: SN12C renal
SF-295 CNS = system: SF-295 CNS
UACC-257 melanoma = system: UACC-257 melanoma
HOP-62 NSCLC = system: HOP-62 NSCLC
UACC-62 melanoma = system: UACC-62 melanoma
NCI-H460 lung = system: NCI-H460 lung
LOX IMVI melanoma = system: LOX IMVI melanoma
MOLT-4 leukemia = system: MOLT-4 leukemia
MCF7 breast = system: MCF7 breast
SR leukemia = system: SR leukemia
MDA-MB-231 breast = system: MDA-MB-231 breast
DU-145 prostate = system: DU-145 prostate
HCC-2998 colon = system: HCC-2998 colon
BT-549 breast = system: BT-549 breast

SMILES	TGI (OVCAR-8 ovarian)	TGI (SN12C renal)	TGI (SF-295 CNS)	TGI (UACC-257 melanoma)	TGI (HOP-62 NSCLC)	TGI (UACC-62 melanoma)	TGI (NCI-H460 lung)	TGI (LOX IMVI melanoma)	TGI (MOLT-4 leukemia)	TGI (MCF7 breast)	TGI (SR leukemia)	TGI (MDA-MB-231 breast)	TGI (DU-145 prostate)	TGI (HCC-2998 colon)	TGI (BT-549 breast)
CCCN1CN(C(C(=O)N[C@@H]2C(=O)N3C(C(=O)O)=C(C)CSC23)c2ccc(O)cc2)CSC1=S (stereo partly specified)	> 100 µM	> 100 µM	> 100 µM	> 100 µM	> 100 µM	> 100 µM	> 100 µM	> 100 µM	> 100 µM						
O=c1[nH]c(=S)[nH]n1C(=S)n1[nH]c(=S)[nH]c1=O	> 100 µM	> 100 µM	> 100 µM	> 100 µM	> 100 µM	> 100 µM	> 100 µM	> 100 µM	> 100 µM	40.6 µM	> 100 µM	> 100 µM	> 100 µM	> 100 µM	
O=C(c1cccs1)N(C(=S)N1CCN(c2ccccn2)CC1)C1CCCCC1	> 100 µM	> 100 µM	> 100 µM	> 100 µM	> 100 µM	> 100 µM	> 100 µM	> 100 µM	> 100 µM		> 100 µM				
CN(C)C(=O)Nc1cc2c3c(c1)CCCN3CCC2	> 10 µM	> 10 µM	> 10 µM	> 10 µM	> 10 µM	> 10 µM	> 10 µM	> 10 µM	> 10 µM	> 10 µM	> 10 µM	> 10 µM	> 10 µM	> 10 µM	
C=C(Br)CN(C(C)=O)C1CCCCC1	> 100 µM	> 100 µM	> 100 µM	> 100 µM	> 100 µM	> 100 µM	> 100 µM	> 100 µM	> 100 µM	> 100 µM	> 100 µM	> 100 µM	> 100 µM	> 100 µM	
CC/C=C/C(=O)CC(O)(C(F)(F)F)C(F)(F)F	> 100 µM	> 100 µM	> 100 µM	> 100 µM	> 100 µM	> 100 µM	> 100 µM	> 100 µM	> 100 µM	> 100 µM	> 100 µM	> 100 µM	> 100 µM	> 100 µM	
O=C(C1C(c2ccccc2)N1C(c1ccccc1)c1ccccc1)C1C(c2ccccc2)N1C(c1ccccc1)c1ccccc1 (stereo unspecified)	> 100 µM	46.9 µM	> 100 µM	40.3 µM	> 100 µM		29.5 µM		33.4 µM	22.4 µM	16.6 µM	45.4 µM		37.8 µM	
COc1cc(Nc2cnc3cc(F)c(F)cc3n2)cc(OC)c1	> 100 µM	> 100 µM	> 100 µM	> 100 µM	> 100 µM	> 100 µM	> 100 µM	> 100 µM	> 100 µM	> 100 µM	> 100 µM		> 100 µM		> 100 µM
COc1ccc2c(c1)N=C1CSC(c3cccc(Br)c3)N1C2 (stereo unspecified)	> 100 µM	39.7 µM	40.8 µM	24.3 µM	56.2 µM	31.8 µM	23.7 µM	50 µM	31 µM	25.2 µM	23.1 µM	50.6 µM		19.7 µM	32.4 µM
CSC1=N/C(=C\c2ccco2)C(=O)N1CN1CCCCC1	> 100 µM	> 100 µM	> 100 µM		> 100 µM	> 100 µM		> 100 µM	> 100 µM	> 100 µM	> 100 µM	> 100 µM	> 100 µM		
CCCn1c(SCC)c2cc3cc4ccccc4cc3cc2c1-c1nc(F)nc(F)n1	> 100 µM	> 100 µM	> 100 µM	> 100 µM	> 100 µM		> 100 µM	> 100 µM	> 100 µM		> 100 µM			> 100 µM	
Cn1c(Nc2ccccc2)c(C=Nc2ccccc2)c(=O)n(C)c1=O	> 100 µM	> 100 µM	> 100 µM	> 100 µM	79.7 µM	> 100 µM	> 100 µM	> 100 µM	> 100 µM	> 100 µM		> 100 µM	> 100 µM		> 100 µM
O=c1oc2ccccc2c(O)c1C(c1ccc(/C=C/c2ccccc2)cc1)c1c(O)c2ccccc2oc1=O	43.8 µM	53.9 µM		> 100 µM	89.3 µM	> 100 µM	55.9 µM	73.3 µM	66.8 µM			67.9 µM	> 100 µM	45.2 µM	56.2 µM
CCOC(=O)C(NC(=O)CC(C)C)(Nc1ccc(S(=O)(=O)Nc2nc(C)cc(C)n2)cc1)C(F)(F)F (stereo unspecified)	> 100 µM	> 100 µM	> 100 µM	> 100 µM	> 100 µM	> 100 µM	> 100 µM	> 100 µM	> 100 µM		> 100 µM	> 100 µM	> 100 µM	99.2 µM	> 100 µM
O=C1CCC2CCC1C2 (stereo unspecified)	> 100 µM	> 100 µM	> 100 µM	> 100 µM	> 100 µM	> 100 µM	> 100 µM	> 100 µM	> 100 µM	> 100 µM		> 100 µM	> 100 µM	> 100 µM	
COc1cc(NCc2ccc3nc(OC)c(OC)nc3c2)cc(OC)c1OC	> 100 µM	> 100 µM	> 100 µM	> 100 µM	> 100 µM	> 100 µM	> 100 µM	> 100 µM	> 100 µM	> 100 µM	> 100 µM	> 100 µM	> 100 µM	> 100 µM	
O=C1c2ccccc2C2=Nc3ccncc3CN12	> 100 µM	> 100 µM	> 100 µM	> 100 µM	> 100 µM	> 100 µM	> 100 µM		> 100 µM	> 100 µM	> 100 µM		> 100 µM	> 100 µM	> 100 µM
CN(/N=C/c1ccccn1)C1=NCCCCN1	> 100 µM		> 100 µM	> 100 µM	> 100 µM	> 100 µM	> 100 µM	> 100 µM	> 100 µM	> 100 µM	> 100 µM	> 100 µM		> 100 µM	> 100 µM
